Reference: patent US20140017336A1, “CO-ADMINISTRATION OF ARSENIC COMPOUNDS AND ANTI-HERPES VIRUS ANTI-VIRALS” (priority 2011, published 2014)
Entries after “also recorded” stand apart in the source; their conditions may differ.

What was measured:
PML NB = type: cell-based, human; details: 24 hours
[1] = system: EBV immediate early protein Zta; test: Zta immunofluorescence in CNE1<EBV-BX1> cells; type: cell-based, Epstein-Barr virus; details: 1 nM ATO with or without 40 μM GCV, 3 days
Protocol: A549 cells were plated on 8-chambered Lab-Tek slides at 3×10^4 cells per well; chemical treatment began 24 hours after plating. At specified time points, cells were rinsed twice with PBS and fixed in 4% paraformaldehyde (freshly diluted from 16%, Electron Microscopy Science, Hatfield, Pa.) for 10 min at room temperature. The cells were then rinsed twice with PBS and permeabilized with 0.5% Triton™ X100 (Sigma) in PBS for 15 min at room temperature. Primary antibodies were applied at specified concentrations overnight in a humidified chamber at 4° C. Following 3 rinses in PBS, secondary antibodies were diluted 1:500 and applied for 1 hour at room temperature. The chambers were removed and Vectashield® with DAPI (Vector Laboratories, Burlingame, Calif. #H1200) was applied with cover slip mount. […]
To more specifically investigate the effects of disruption of PML NB on ZTA expression, siRNA directed against the PML transcript or a control siRNA were transfected into CNE1<BX1> cells. At day 4 post transfection, PML and Zta expression were analyzed using immunofluorescence. […] EBV infected and uninfected parental CNE1 cells were transfected with siRNA against the PML transcript or control siRNA cultured in the presence or absence of 40 μM GCV for 7 days and cells were counted in order to investigate whether disruption of PML NBs using siRNA induced GCV susceptibility. […]

EBV Zta mRNA = test: qRT-PCR of Zta mRNA in CNE1<EBV-BX1> cells; type: cell-based, Epstein-Barr virus
[2] = system: MUTU1 cells (EBV positive Burkitt's lymphoma-derived); test: Viable cell count (trypan blue exclusion), MUTU1 cells; type: cell-based, human; details: 10 nM or 100 nM ATO, 2 and 3 days
EBV Zta [3] = test: Western blot of Zta in MUTU1 cells; type: cell-based, Epstein-Barr virus; details: 0, 10 nM, 100 nM ATO, day 3
EBV Zta [4] = test: Western blot of Zta in EBV-negative MUTU cells; type: cell-based, Epstein-Barr virus; details: 0, 10 nM, 100 nM ATO, day 3
Zta mRNA = Zta mRNA transcription in LCL<EBV1-13> cells; type: cell-based, Epstein-Barr virus; details: three days, 10 nM ATO
Protocol: FIGS. 8A-D. B-cells recently isolated from a patient were infected with EBV, allowed to grow out for several generations (only the EBV-infected cells would be able to grow out), and frozen until use. FIGS. 8A and B. FIGS. 8A and B graph the relative percent of viability of EBV-infected B-cells as just described (LCL<EBV1-13> cells) thawed and grown in one of: media alone (“control”), media and 45 μM ganciclovir (GCV), media and […] arsenic trioxide (ATO), or media and a combination of these concentrations of GCV and ATO. The bars show the relative viability of cells after 2 days of this treatment (“2 D,” FIG. 8A), and at three days (“3 D,” FIG. 8B). FIG. 8C. Epstein-Barr nuclear antigen (“EBNA”) driven by the C promoter (“Cp”) is transcribed only during the latent phase of the virus. FIG. 8C graphs the relative expression of EBNA Cp mRNA of LCL<EBV1-13> cells grown three days (“3 D”) in media alone (“control”), media and 45 μM ganciclovir (GCV), media and 10 nM arsenic trioxide (ATO), or media and a combination of these concentrations of GCV and ATO. […] FIG. 8D. FIG. 8D graphs the relative transcription of the viral immediate early protein Zta mRNA of LCL<EBV1-13> cells grown three days (“3 D”) in media alone (“control”), media and 45 μM ganciclovir (GCV), media and 10 nM arsenic trioxide (ATO), or media and a combination of these concentrations of GCV and ATO. […]

A549<EBVBX1>3A cells = test: Annexin V/propidium iodide viability, EBV infected A549 cells; details: 4 days

Sequence of PML NB (P29590 1-418 limits assumed): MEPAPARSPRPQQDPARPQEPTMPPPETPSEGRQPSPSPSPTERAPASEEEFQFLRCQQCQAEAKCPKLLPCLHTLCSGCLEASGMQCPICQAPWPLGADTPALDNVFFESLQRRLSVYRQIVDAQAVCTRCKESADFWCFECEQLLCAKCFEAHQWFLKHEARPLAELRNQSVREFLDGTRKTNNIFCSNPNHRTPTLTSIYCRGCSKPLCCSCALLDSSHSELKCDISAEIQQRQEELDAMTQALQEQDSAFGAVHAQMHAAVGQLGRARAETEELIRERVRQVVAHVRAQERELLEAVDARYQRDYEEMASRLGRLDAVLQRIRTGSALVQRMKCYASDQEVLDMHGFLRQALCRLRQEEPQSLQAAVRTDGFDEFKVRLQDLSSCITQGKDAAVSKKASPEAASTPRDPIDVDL

arsenic trioxide [ATO]
PML NB immunofluorescence signal (PML NB; 12.5 nM ATO): complete loss; also recorded: below that of baseline untreated uninfected cells | ATO concentration resulting in reduction of PML NB size, number and fluorescent intensity (PML NB; EBV infected A549 cells, 'as low as'): 6.25 nM | PML NB immunofluorescence intensity, dose response (PML NB; varying doses of ATO): diminished by exposure to ATO in a dose dependent manner | number of Zta positive cells [1]: increased the number of cells that were Zta positive | ATO dose inducing upregulation of ZTA mRNA (EBV Zta mRNA; 48 hours, 'as low as'): 1.25 nM | Zta mRNA expression compared to control (EBV Zta mRNA; 4 days, 1 nM ATO and/or 40 μM GCV): increased | cell viability, EBV positive MUTU cells [2]: dose and time dependent suppression of cell viability | Zta expression (Western blot), EBV positive MUTU cells (EBV Zta [3]): markedly enhanced reactivation of the EBV lytic cycle; also recorded: show Zta expression | Zta expression (Western blot), EBV-negative MUTU cells (EBV Zta [4]): absent; also recorded: no Zta expression | relative transcription of Zta mRNA (Zta mRNA): approximately fourfold higher | percentage of annexin V positive cells (A549<EBVBX1>3A cells; control 21%): 58% | percentage of viable cells (A549<EBVBX1>3A cells; EBV positive cells, control 67%): 35%
